Laboratory results from ChEMBL document CHEMBL1130735, “A paclitaxel analogue with a 2(3-->20)abeotaxane skeleton: synthesis and biological evaluation” (Bioorg Med Chem Lett, 1998).
Values after ≈ are worked out from the molar mass of the structure shown.

Key:
Type in all cases: functional, cell-based
P388 = experiment: Cytotoxicity was evaluated against P388 mouse lymphoma cells
[1] = Cytotoxicity was evaluated against […] cells
HT-29 = experiment: Cytotoxicity was evaluated against HT-29 human colon adenocarcinoma cells
[2] = Cytotoxicity was evaluated against MEL28 melanoma cells; settings: Homo sapiens, SK-MEL-28

Compound | IC50 (P388) [µg/mL] | IC50 [1] [µg/mL] | IC50 (HT-29) [µg/mL] | IC50 [2] [µg/mL]
CC(=O)O[C@H]1C(=O)[C@@]2(C)[C@H]([C@H](OC(=O)c3ccccc3)[C@]3(O)C[C@H](OC(=O)[C@H](O)[C@@H](NC(=O)c4ccccc4)c4ccccc4)C(C)=C1C3(C)C)[C@]1(OC(C)=O)CO[C@@H]1C[C@@H]2O [PACLITAXEL] | 0.2 (≈ 0.234 µM) | 0.002 (≈ 0.00234 µM) | 0.002 (≈ 0.00234 µM) | 0.002 (≈ 0.00234 µM)
CC1=C2[C@@H](O)C(=O)[C@@]3(C)CC(C[C@H](OC(=O)c4ccccc4)[C@H](C[C@@H]1OC(=O)[C@H](O)[C@H](NC(=O)c1ccccc1)c1ccccc1)C2(C)C)[C@@H](O)C[C@@H]3O | 6 (≈ 8.11 µM) | 6 (≈ 8.11 µM) | 6 (≈ 8.11 µM) | 6 (≈ 8.11 µM)
CC(=O)O[C@H]1C[C@H]2[C@@H](OC(C)=O)/C=C3\C[C@](C)(C(=O)[C@H](O)C(=C1C)C2(C)C)[C@@H](O)C[C@@H]3O | > 10 | > 10 | > 10 | > 10
